Experimental data reported in patent US10391160B2, “Dimethyl fumarate and vaccination regimens” (Biogen MA Inc., priority 2014, dated 2019).

Experiment: healthy volunteer study of flushing on DMF dosing with aspirin pre-treatment
Assay type: in vivo, human
Conditions: 325 mg non-enteric coated aspirin 30 minutes prior to DMF dosing; healthy volunteers
Protocol: Subjects receiving a vaccine who experience flushing may be administered (e.g., 30 min. prior to DMF dosing) about 325 mg of aspirin to reduce flushing. Some patients who experience flushing with gastrointestinal side effects may reduce the dose to 120 mg DMF BID temporarily. Within a month, the effective dose of 240 mg DMF BID should be resumed.

For `CC(=O)Oc1ccccc1C(=O)O` [aspirin], the “occurrence and severity of flushing” value was “reduce the occurrence and severity of flushing”.
